For one test, the target named is JMJD2C (Homo sapiens (Human), UniProt Q9H3R0). The experiment in a line: JMJD2C in vitro enzyme inhibition assay (TR-FRET). It is filed as biochemical. On the technique in general: TR-FRET usually uses a lanthanide donor and a delayed reading to cut background.
For a further test, the target named is Jarid1A (Homo sapiens (Human), UniProt P29375). The experiment in a line: Jarid1A in vitro enzyme inhibition assay (TR-FRET). It is filed as biochemical. From the text: The enzymatic assay of Jarid1A activity is based upon Time Resolved-Fluorescence Resonance Energy Transfer (TR-FRET) detection.
The target in another test is FBXL10 (Homo sapiens (Human), UniProt Q8NHM5). In words: FBXL10 in vitro enzyme inhibition assay (AlphaScreen). The class given is biochemical. The essentials: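 AlphaScreen read-out of H3K36me1 product, detected with anti-H3K36me1 antibody plus streptavidin donor and Protein A acceptor beads (final 10 μg/ml) in 50 mM HEPES pH 7.3, 10 mM NaCl, 0.005% Brij35, 5 mM EDTA, 2 mg/ml BSA. Beads incubated 2 h to overnight at room temperature; IC50 derived from AlphaScreen signal.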
For orientation: Bead proximity is the source of the signal in Alpha formats.

The target of another test is Jarid1B (Homo sapiens (Human), UniProt Q9UGL1). In words: Jarid1B in vitro enzyme inhibition assay (TR-FRET). It is filed as biochemical.
For the next test, the system named is KDM5A and KDM5B. In words: In vitro cell-based assay: tri-methyl H3K4 immuno-blotting in ZR-75-1 cells (cellular inhibition of KDM5A/B). The note with it: ZR-75-1 breast cancer cells, 72 hours, tri-methylated H3K4 level; read-out: IC50 ZR-75-1 cell-MOA.
A further test addresses JMJD2A (Homo sapiens (Human), UniProt O75164). In words: JMJD2A in vitro enzyme inhibition assay (TR-FRET). The class given is biochemical.

Bounds are passed on as bounds.

Jarid1B, sequence (Q9UGL1 2-751): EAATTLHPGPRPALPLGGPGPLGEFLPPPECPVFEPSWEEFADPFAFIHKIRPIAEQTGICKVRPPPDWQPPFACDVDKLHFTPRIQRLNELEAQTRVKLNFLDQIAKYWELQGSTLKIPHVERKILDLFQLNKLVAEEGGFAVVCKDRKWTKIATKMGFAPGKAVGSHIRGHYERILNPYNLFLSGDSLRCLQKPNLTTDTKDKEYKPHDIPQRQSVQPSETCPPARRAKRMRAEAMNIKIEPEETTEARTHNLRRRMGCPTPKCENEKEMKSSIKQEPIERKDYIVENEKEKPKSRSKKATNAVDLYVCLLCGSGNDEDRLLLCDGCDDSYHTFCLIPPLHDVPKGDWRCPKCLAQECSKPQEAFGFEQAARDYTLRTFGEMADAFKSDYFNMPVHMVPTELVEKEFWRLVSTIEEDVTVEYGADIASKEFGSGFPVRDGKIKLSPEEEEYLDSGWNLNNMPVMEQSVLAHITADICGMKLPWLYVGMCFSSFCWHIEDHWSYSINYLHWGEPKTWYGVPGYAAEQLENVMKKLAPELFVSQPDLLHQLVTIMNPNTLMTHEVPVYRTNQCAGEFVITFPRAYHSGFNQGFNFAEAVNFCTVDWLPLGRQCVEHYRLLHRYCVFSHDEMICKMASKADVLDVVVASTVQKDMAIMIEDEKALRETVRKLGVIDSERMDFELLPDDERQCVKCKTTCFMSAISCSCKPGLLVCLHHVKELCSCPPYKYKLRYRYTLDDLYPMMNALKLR
JMJD2C, sequence (Q9H3R0 2-372): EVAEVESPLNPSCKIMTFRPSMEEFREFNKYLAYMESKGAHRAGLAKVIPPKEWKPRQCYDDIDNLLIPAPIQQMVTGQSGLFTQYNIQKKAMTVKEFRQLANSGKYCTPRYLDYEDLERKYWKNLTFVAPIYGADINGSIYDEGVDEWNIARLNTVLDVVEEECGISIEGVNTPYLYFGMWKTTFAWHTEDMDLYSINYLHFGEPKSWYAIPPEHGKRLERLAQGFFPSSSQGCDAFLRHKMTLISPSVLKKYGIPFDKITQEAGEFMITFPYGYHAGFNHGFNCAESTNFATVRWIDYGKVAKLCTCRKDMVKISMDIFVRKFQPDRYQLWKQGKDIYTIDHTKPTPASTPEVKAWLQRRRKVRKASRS
FBXL10, sequence (Q8NHM5 1-650): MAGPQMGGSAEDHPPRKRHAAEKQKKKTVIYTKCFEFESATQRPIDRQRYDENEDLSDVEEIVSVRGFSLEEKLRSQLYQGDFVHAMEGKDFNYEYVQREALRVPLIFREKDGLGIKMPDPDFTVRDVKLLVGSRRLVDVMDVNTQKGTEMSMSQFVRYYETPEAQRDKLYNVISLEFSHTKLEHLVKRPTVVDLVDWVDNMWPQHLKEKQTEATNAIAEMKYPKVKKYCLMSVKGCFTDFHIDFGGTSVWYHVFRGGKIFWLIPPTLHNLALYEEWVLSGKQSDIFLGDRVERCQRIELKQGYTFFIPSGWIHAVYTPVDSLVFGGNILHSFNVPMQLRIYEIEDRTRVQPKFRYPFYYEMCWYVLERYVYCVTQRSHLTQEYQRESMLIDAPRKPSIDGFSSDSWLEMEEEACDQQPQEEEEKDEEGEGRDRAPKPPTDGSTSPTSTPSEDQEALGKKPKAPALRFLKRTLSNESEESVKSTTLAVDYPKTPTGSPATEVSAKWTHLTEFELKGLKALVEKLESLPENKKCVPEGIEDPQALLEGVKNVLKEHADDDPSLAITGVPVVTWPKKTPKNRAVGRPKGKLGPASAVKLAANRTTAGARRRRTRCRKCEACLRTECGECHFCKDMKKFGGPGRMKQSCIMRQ
JMJD2A, sequence (O75164 1-350): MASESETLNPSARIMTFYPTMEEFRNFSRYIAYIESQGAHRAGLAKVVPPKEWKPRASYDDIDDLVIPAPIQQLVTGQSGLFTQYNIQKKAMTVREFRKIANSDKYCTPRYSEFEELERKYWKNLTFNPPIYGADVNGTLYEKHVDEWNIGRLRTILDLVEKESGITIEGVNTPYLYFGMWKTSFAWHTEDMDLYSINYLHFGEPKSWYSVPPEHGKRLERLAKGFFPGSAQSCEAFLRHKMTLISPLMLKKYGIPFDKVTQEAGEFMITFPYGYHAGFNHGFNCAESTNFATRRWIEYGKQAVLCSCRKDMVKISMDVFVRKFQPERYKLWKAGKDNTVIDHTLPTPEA
Jarid1A, sequence (P29375 1-1090): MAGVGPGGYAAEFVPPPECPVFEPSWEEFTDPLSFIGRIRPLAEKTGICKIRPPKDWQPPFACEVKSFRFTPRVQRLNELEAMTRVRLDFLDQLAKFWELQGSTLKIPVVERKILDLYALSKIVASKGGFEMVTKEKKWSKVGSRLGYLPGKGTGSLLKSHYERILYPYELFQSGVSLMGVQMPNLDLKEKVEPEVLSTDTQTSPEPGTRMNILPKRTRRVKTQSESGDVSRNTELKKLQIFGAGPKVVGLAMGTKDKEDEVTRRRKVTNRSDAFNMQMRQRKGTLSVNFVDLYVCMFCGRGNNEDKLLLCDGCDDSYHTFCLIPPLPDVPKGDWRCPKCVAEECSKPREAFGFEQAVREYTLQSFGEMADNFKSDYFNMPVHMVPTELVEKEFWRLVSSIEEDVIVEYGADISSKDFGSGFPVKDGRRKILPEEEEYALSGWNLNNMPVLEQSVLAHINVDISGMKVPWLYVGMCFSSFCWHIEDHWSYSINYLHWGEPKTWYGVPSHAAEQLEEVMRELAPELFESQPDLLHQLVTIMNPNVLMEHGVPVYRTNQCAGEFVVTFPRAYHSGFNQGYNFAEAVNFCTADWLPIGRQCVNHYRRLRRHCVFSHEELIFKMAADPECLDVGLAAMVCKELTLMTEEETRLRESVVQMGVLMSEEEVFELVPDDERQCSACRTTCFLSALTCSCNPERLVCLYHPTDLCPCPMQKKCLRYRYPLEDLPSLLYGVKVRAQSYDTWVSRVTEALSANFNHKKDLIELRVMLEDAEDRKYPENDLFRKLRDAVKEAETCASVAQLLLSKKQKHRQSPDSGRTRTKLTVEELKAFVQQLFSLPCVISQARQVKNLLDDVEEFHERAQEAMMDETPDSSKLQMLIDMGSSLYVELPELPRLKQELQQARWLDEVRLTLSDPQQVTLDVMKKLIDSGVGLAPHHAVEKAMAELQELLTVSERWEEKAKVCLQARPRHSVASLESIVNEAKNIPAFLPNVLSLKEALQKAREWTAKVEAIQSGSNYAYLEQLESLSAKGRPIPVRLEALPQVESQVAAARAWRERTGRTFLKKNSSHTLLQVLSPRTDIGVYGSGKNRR
Description for JMJD2A: This assay determines the ability of a test compound to inhibit Jarid1A, Jarid1B, JMJD2C, and JMJD2A demethylase activity. […] Baculovirus expressed JMJD2A (GenBank Accession #NM_014663, AA 1-350) was purchased from BPS Bioscience (Cat#50123).
The ability of test compounds to inhibit the activity of JMJD2A was determined in 384-well plate format under the following reaction conditions: 2 nM JMJD2A, 300 nM H3K9me3-biotin labeled peptide (Anaspec cat #64360), 2 μM alpha-ketoglutaric acid in assay buffer of 50 mM HEPES, pH7.3, 0.005% Brij35, 0.5 mM TCEP, 0.2 mg/ml BSA, 50 μM sodium L-ascorbate, and 2 μM ammonium iron(II) sulfate. Reaction product was determined quantitatively by TR-FRET after the addition of detection reagent Phycolink Streptavidin-allophycocyanin (Prozyme) and Europium-anti-di-methylated histone H3 lysine 9 (H3K9me2) antibody (PerkinElmer) in the presence of 5 mM EDTA in LANCE detection buffer (PerkinElmer) at a final concentration of 50 nM and 1 nM, respectively.
The assay reaction was initiated by the following: 2 μl of the mixture of 900 nM H3K9me3-biotin labeled peptide and 6 μM alpha-ketoglutaric acid with 2 μl of 11-point serial diluted inhibitor in 3% DMSO were added to each well of plate, followed by the addition of 2 μl of 6 nM JMJD2A to initiate the reaction. The reaction mixture was incubated at room temperature for 30 minutes, and terminated by the addition of 6 μl of 5 mM EDTA in LANCE detection buffer containing 100 nM Phycolink Streptavidin-allophycocyanin and 2 nM Europium-anti-H3K9me2 antibody. Plates were read by EnVisionMultilabel Reader in TR-FRET mode (excitation at 320 nm, emission at 615 nm and 665 nm) after 1 hour incubation at room temperature. A ratio was calculated (665/615) for each well and fitted to determine inhibition constant (IC50).
Description for JMJD2C: This assay determines the ability of a test compound to inhibit Jarid1A, Jarid1B, JMJD2C, and JMJD2A demethylase activity. […] Baculovirus expressed JMJD2C (GenBank Accession #BC143571, AA 2-372) was purchased from BPS Bioscience (Cat#50105).
The ability of test compounds to inhibit the activity of JMJD2C was determined in 384-well plate format under the following reaction conditions: 0.3 nM JMJD2C, 300 nM H3K9me3-biotin labeled peptide (Anaspec cat #64360), 2 μM alpha-ketoglutaric acid in assay buffer of 50 mM HEPES, pH7.3, 0.005% Brij35, 0.5 mM TCEP, 0.2 mg/ml BSA, 50 μM sodium L-ascorbate, and 2 μM ammonium iron(II) sulfate. Reaction product was determined quantitatively by TR-FRET after the addition of detection reagent Phycolink Streptavidin-allophycocyanin (Prozyme) and Europium-anti-di-methylated histone H3 lysine 9 (H3K9me2) antibody (PerkinElmer) in the presence of 5 mM EDTA in LANCE detection buffer (PerkinElmer) at a final concentration of 50 nM and 1 nM, respectively.
The assay reaction was initiated by the following: 2 μl of the mixture of 900 nM H3K9me3-biotin labeled peptide and 6 μM alpha-ketoglutaric acid with 2 μl of 11-point serial diluted inhibitor in 3% DMSO were added to each well of the plate, followed by the addition of 2 μl of 0.9 nM JMJD2C to initiate the reaction. The reaction mixture was incubated at room temperature for 30 minutes, and terminated by the addition of 6 μl of 5 mM EDTA in LANCE detection buffer containing 100 nM Phycolink Streptavidin-allophycocyanin and 2 nM Europium-anti-H3K9me2 antibody. Plates were read by EnVisionMultilabel Reader in TR-FRET mode (excitation at 320 nm, emission at 615 nm and 665 nm) after 1 hour incubation at room temperature. A ratio was calculated (665/615) for each well and fitted to determine inhibition constant (IC50).
Description for KDM5A and KDM5B: This quantitative immuno-blotting assay measures the amount tri-methylated histone H3 at amino acid Lysine number 4, a specific substrate and product of the direct enzymatic activity of the histone demethylases KDM5A and KDM5B from extracts of the ZR-75-1 breast cancer cell line.
This assay is a fluorometric immunoassay for the quantification of tri-methyl H3K4 extracted from cells treated with test compound and is used as a measure of the cellular inhibition of KDM5A/B.
Extracts were prepared containing all of the cellular histone material using detergent based lysis and sonication methods. These lysates were subsequently normalized for total protein content using a colorimetric bicinchonic acid assay (MicroBCA Pierce/Thermo Scientific). Normalized cell extracts were then subjected to typical immuno-blotting procedures using NuPage reagents (Life Technologies). Electrophoretically separated histones were then transferred and immobilized using polyvinylidene difluoride membrane (Immobilon-FL Millipore). The amount of tri-methylated lysine 4 of histone H3 was detected using an antibody specific to the tri-methylated state (Cell Signaling Technologies) and quantified on an infrared imager using a densitometry software package (Odyssey CLx, Image Studio, Li-Cor). This background subtracted densitometry value was reported as a ration of the GAPDH amount for that sample and then calculated as a percent of the DMSO treated sample. The software package XL-fit (IDBS) was then used to calculate a relative IC50 value for the dilution series of a given test compound according to the equation: fit=(D+((Vmax*(x^n))/((x^n)+(Km^n)))).

Broadly, the IC50 is the concentration needed to halve the response being measured. In the case of `O=C(O)c1ccnc(-c2cn(Cc3ccccc3)cn2)c1` [Example 100, 2-(1-benzylimidazol-4-yl)pyridine-4-carboxylic acid], the IC50 on JMJD2C is 100 to 1000 nM; at Jarid1A it was not above 100 nM; against FBXL10 it was not above 100 nM; at Jarid1B it was not above 100 nM; in the test on KDM5A and KDM5B it was 1000 to 10000 nM.

Take `O=C(O)c1ccnc(-c2cn(Cc3cccc(F)c3)cn2)c1` [Example 104, 2-[1-[(3-fluorophenyl)methyl]imidazol-4-yl]pyridine-4-carboxylic]: the IC50 is 100 to 1000 nM against JMJD2C; not above 100 nM on Jarid1A; not above 100 nM on FBXL10; not above 100 nM at Jarid1B; more than 10000 nM in the test with KDM5A and KDM5B.

Turning to `Cc1ccc(-c2c(-c3cc(C(=O)O)ccn3)ncn2C)cc1O` [Example 3, 2-[5-(3-hydroxy-4-methylphenyl)-1-methyl-1H-imidazol-4-yl]pyridine-4-carboxylic acid], the IC50 on JMJD2C was 1000 to 10000 nM; against Jarid1A it was not above 100 nM; against FBXL10, 100 to 1000 nM; on Jarid1B it was not above 100 nM; in the test with KDM5A and KDM5B it was more than 10000 nM.

`COc1ccc(-c2c(-c3cc(C(=O)O)ccn3)ncn2C)cc1` [Example 12, 2-[5-(4-methoxyphenyl)-1-methyl-1H-imidazol-4-yl]pyridine-4-carboxylic acid]: the IC50 in the test on KDM5A and KDM5B fell in the range of 1000 to 10000 nM.

For `O=C(O)c1ccnc(-c2cn(CCc3ccc(F)cc3)cn2)c1` [Example 92, 2-[1-[2-(4-fluorophenyl)ethyl]imidazol-4-yl]pyridine-4-carboxylic acid], the IC50 against JMJD2C is not above 100 nM; against Jarid1A, not above 100 nM; against FBXL10, not above 100 nM; on Jarid1B, not above 100 nM; with KDM5A and KDM5B, 1000 to 10000 nM.

In the case of `O=C(O)c1ccnc(-c2cn(CCNCC3CCC(F)(F)CC3)cn2)c1` [Example 72, 2-[1-[2-[(4,4-difluorocyclohexyl)methylamino]ethyl]imidazol-4-yl]pyridine-4-carboxylic acid], the IC50 on JMJD2C is not above 100 nM; at Jarid1A, not above 100 nM; against FBXL10, not above 100 nM; against Jarid1B it was not above 100 nM; in the test with KDM5A and KDM5B, 1000 to 10000 nM.

With `Cn1cnc(-c2cc(C(=O)O)ccn2)c1-c1ccc(C2CC2)cc1` [Example 7, 2-[5-(4-cyclopropylphenyl)-1-methyl-1H-imidazol-4-yl]pyridine-4-carboxylic acid], the IC50 at JMJD2C was 1000 to 10000 nM; against Jarid1A, not above 100 nM; at FBXL10 it was 100 to 1000 nM; on Jarid1B, not above 100 nM; in the test on KDM5A and KDM5B, more than 10000 nM.

On to `Cn1cnc(-c2cc(C(=O)O)ccn2)c1-c1ccc(OCC2CC2)cc1` [Example 16, 2-{5-[4-(cyclopropylmethoxy)phenyl]-1-methyl-1H-imidazol-4-yl}pyridine-4-carboxylic acid], for which the IC50 on JMJD2C was 100 to 1000 nM; against Jarid1A, not above 100 nM; on FBXL10, 100 to 1000 nM; on Jarid1B, not above 100 nM; in the test on KDM5A and KDM5B it was 1000 to 10000 nM.

Take `Cn1cnc(-c2cc(C(=O)O)ccn2)c1-c1ccc(-n2cccn2)cc1` [Example 15, 2-{1-methyl-5-[4-(1H-pyrazol-1-yl)phenyl]-1H-imidazol-4-yl}pyridine-4-carboxylic acid]: the half-maximal inhibitory concentration (IC50) is 100 to 1000 nM against JMJD2C; not above 100 nM against Jarid1A; 100 to 1000 nM on FBXL10; not above 100 nM at Jarid1B; 1000 to 10000 nM with KDM5A and KDM5B.

As to `CCCn1cnc(-c2cc(C(=O)O)ccn2)c1` [Example 41, 2-(1-propyl-1H-imidazol-4-yl)pyridine-4-carboxylic acid], the IC50 was not above 100 nM against JMJD2C; not above 100 nM on Jarid1A; not above 100 nM against FBXL10; not above 100 nM on Jarid1B; 1000 to 10000 nM with KDM5A and KDM5B.

Turning to `CN(C)CCn1cnc(-c2cc(C(=O)O)ccn2)c1` [Example 40, 2-{1-[2-(dimethylamino)ethyl]-1H-imidazol-4-yl}pyridine-4-carboxylic acid], the IC50 was not above 100 nM against JMJD2C; not above 100 nM against Jarid1A; not above 100 nM against Jarid1B; 1000 to 10000 nM with KDM5A and KDM5B.

Consider `Cn1cnc(-c2cc(C(=O)O)ccn2)c1-c1ccc(N2CCCC2)cc1` [Example 18, 2-{1-methyl-5-[4-(pyrrolidin-1-yl)phenyl]-1H-imidazol-4-yl}pyridine-4-carboxylic acid], for which the IC50 against JMJD2C is 100 to 1000 nM; against Jarid1A it was not above 100 nM; against Jarid1B, not above 100 nM; in the test on KDM5A and KDM5B, 1000 to 10000 nM.

Consider `CC(Cc1ccccc1)n1cnc(-c2cc(C(=O)O)ccn2)c1` (stereo not drawn) [Example 106, 2-[1-(1-phenylpropan-2-yl)imidazol-4-yl]pyridine-4-carboxylic acid], for which the IC50 against JMJD2C is 100 to 1000 nM; against Jarid1A, not above 100 nM; at FBXL10, not above 100 nM; against Jarid1B, not above 100 nM; in the test with KDM5A and KDM5B it was 1000 to 10000 nM.

Consider `Cn1cnc(-c2cc(C(=O)O)ccn2)c1-c1cccc(Cl)c1` [Example 20, 2-[5-(3-chlorophenyl)-1-methyl-1H-imidazol-4-yl]pyridine-4-carboxylic acid], for which the IC50 is 100 to 1000 nM on JMJD2C; not above 100 nM against Jarid1A; not above 100 nM against FBXL10; not above 100 nM at Jarid1B; more than 10000 nM in the test with KDM5A and KDM5B.

On to `Cn1cnc(-c2cc(C(=O)O)ccn2)c1-c1ccc(Cl)cc1` [Example 19, 2-[5-(4-chlorophenyl)-1-methyl-1H-imidazol-4-yl]pyridine-4-carboxylic acid], for which the IC50 was 100 to 1000 nM at JMJD2C; not above 100 nM at Jarid1A; not above 100 nM against FBXL10; not above 100 nM at Jarid1B; 1000 to 10000 nM in the test with KDM5A and KDM5B.

Turning to `Cn1cnc(-c2cc(C(=O)O)ccn2)c1-c1ccc2cc[nH]c2c1` [Example 22, 2-[5-(1H-indol-6-yl)-1-methyl-1H-imidazol-4-yl]pyridine-4-carboxylic acid], the IC50 is 100 to 1000 nM against JMJD2C; not above 100 nM against Jarid1A; not above 100 nM at FBXL10; not above 100 nM at Jarid1B; more than 10000 nM with KDM5A and KDM5B.

Take `Cn1cnc(-c2cc(C(=O)O)ccn2)c1-c1ccc(Cl)c(F)c1` [Example 29, 2-[5-(4-chloro-3-fluorophenyl)-1-methyl-1H-imidazol-4-yl]pyridine-4-carboxylic acid]: the IC50 at JMJD2C is 100 to 1000 nM; against Jarid1A, not above 100 nM; on FBXL10 it was not above 100 nM; at Jarid1B, not above 100 nM; with KDM5A and KDM5B it was more than 10000 nM.

Take `O=C(O)c1ccnc(-c2cn(CCN3CCCc4cc(F)ccc43)cn2)c1` [Example 90, 2-[1-[2-(6-fluoro-3,4-dihydro-2H-quinolin-1-yl)ethyl]imidazol-4-yl]pyridine-4-carboxylic acid]: the concentration for half-maximal inhibition (IC50) was not above 100 nM against JMJD2A; 100 to 1000 nM on JMJD2C; not above 100 nM against Jarid1A; not above 100 nM at FBXL10; not above 100 nM against Jarid1B.

With `CN(CCn1cnc(-c2cc(C(=O)O)ccn2)c1)c1ccccc1` [Example 58, 2-(1-{2-[methyl(phenyl)amino]ethyl}-1H-imidazol-4-yl)pyridine-4-carboxylic acid], the half-inhibitory concentration (IC50) against JMJD2A was 100 to 1000 nM; against JMJD2C it was 100 to 1000 nM; on Jarid1A, not above 100 nM; against FBXL10, not above 100 nM; against Jarid1B, not above 100 nM.

For the compound `CCCn1cnc(-c2cc(C(=O)O)ccn2)c1-c1ccc(Cl)c(F)c1` [Example 35, 2-[5-(4-chloro-3-fluorophenyl)-1-propyl-1H-imidazol-4-yl]pyridine-4-carboxylic acid], the IC50 at JMJD2C is 100 to 1000 nM; on Jarid1A it was not above 100 nM; against FBXL10, not above 100 nM; at Jarid1B, not above 100 nM; with KDM5A and KDM5B it was more than 10000 nM.

Regarding `CN(CCn1cnc(-c2cc(C(=O)NC#N)ccn2)c1)CC1CC1` [Example 64, N-cyano-2-(1-{2-[(cyclopropylmethyl)(methyl)amino]ethyl}-1H-imidazol-4-yl)pyridine-4-carboxamide], the IC50 on JMJD2A is more than 10000 nM; against JMJD2C it was 100 to 1000 nM; at Jarid1A, not above 100 nM; at FBXL10 it was more than 10000 nM; against Jarid1B, not above 100 nM.

Turning to `CN(CCn1cnc(-c2cc(C(=O)O)ccn2)c1)Cc1cccc(F)c1` [Example 69, 2-[1-[2-[(3-fluorophenyl)methyl-methylamino]ethyl]imidazol-4-yl]pyridine-4-carboxylic acid], the IC50 against JMJD2A, against JMJD2C, on Jarid1A, against FBXL10 and against Jarid1B was not above 100 nM throughout.

Take `O=C(O)c1ccnc(-c2cn(CCc3ccccc3F)cn2)c1` [Example 93, 2-[1-[2-(2-fluorophenyl)ethyl]imidazol-4-yl]pyridine-4-carboxylic acid]: the IC50 on JMJD2C is not above 100 nM; at Jarid1A it was not above 100 nM; against FBXL10 it was not above 100 nM; on Jarid1B it was not above 100 nM; with KDM5A and KDM5B, 1000 to 10000 nM.

In the case of `CN(C)CCOCCn1cnc(-c2cc(C(=O)O)ccn2)c1` [Example 48, 2-(1-{2-[2-(dimethylamino)ethoxy]ethyl}-1H-imidazol-4-yl)pyridine-4-carboxylic acid], the half-inhibitory concentration (IC50) on JMJD2A was not above 100 nM; against JMJD2C it was not above 100 nM; against Jarid1A, not above 100 nM; against FBXL10 it was 100 to 1000 nM; at Jarid1B, not above 100 nM.

The record behind these values is patent publication US10273222B2 (CELGENE QUANTICEL RESEARCH, INC., priority 2013, dated 2019).
